Reference: patent publication US4268664A, “Process for the preparation of 1-N-isoseryl- or 1-N-(L-4-amino-2-hydroxybutyryl)-3',4'-dideoxykanamycin B and intermediates thereof” (Zaidan Hojin Biseibutsu Kagaku Kenkyu Kai, priority 1978, dated 1981)
Where two headings read alike, the source gives them in different places.

What was measured:
[1] = tested on: Serra. marcescens I-0043; test: Antibacterial activity (MIC), serial dilution method; format: cell-based; conditions: Serratia marcescens
[2] = tested on: Ps. aeruginosa NC-5; test: as above; format: cell-based; conditions: Pseudomonas aeruginosa
[3] = tested on: Ps. aeruginosa IAM-1007; test: as above; format: cell-based; conditions: Pseudomonas aeruginosa
[4] = tested on: various microorganisms; test: antimicrobial activity (in words); format: cell-based
Method: (§1) The minimum inhibitory concentrations (mcg/ml) of the compounds tested against various microorganisms were determined according to a serial dilution method using nutrient agar medium at 37° C., the estimation being effected after 20 hours-incubation.

[5] = tested on: Pro. morganii K-ono; test: Antibacterial activity (MIC), serial dilution method; format: cell-based; conditions: Morganella morganii; nutrient agar, 37° C., 20 hours
[6] = tested on: Pro. vulgaris J-0001; test: as above; format: cell-based; conditions: Proteus vulgaris
[7] = tested on: Ps. aeruginosa IID 1210 (IFO 3455); test: as above; format: cell-based; conditions: Pseudomonas aeruginosa
[8] = tested on: Sta. aureus Smith S-424; test: as above; format: cell-based; conditions: Staphylococcus aureus, SMITHS424; nutrient agar, 37° C., 20 hours
[9] = tested on: Kleb. pneumoniae; test: as above; format: cell-based; conditions: Klebsiella pneumoniae; nutrient agar, 37° C., 20 hours; read-out: MIC
[10] = tested on: Ps. aeruginosa M-0148; test: as above; format: cell-based; conditions: Pseudomonas aeruginosa
[11] = tested on: Shigella dysenteriae Shigae; test: microbe, parasite or virus in culture; format: cell-based; conditions: 20 h
[12] = tested on: Kleb. pneumoniae 22# 3038 (A-20680); test: Antibacterial activity (MIC), serial dilution method; format: cell-based; conditions: Klebsiella pneumoniae; nutrient agar, 37° C., 20 hours; read-out: MIC
[13] = tested on: Serra. marcescens No. 2; test: as above; format: cell-based; conditions: Serratia marcescens, nutrient agar, 37° C., 20 hours
[14] = tested on: Sta. epidermidis 109; test: as above; format: cell-based; conditions: Staphylococcus epidermidis, nutrient agar, 37° C., 20 hours
[15] = tested on: Sta. aureus No. 26; test: as above; format: cell-based; conditions: Staphylococcus aureus, nutrient agar, 37° C., 20 hours
[16] = tested on: Pro. vulgaris OX19; test: as above; format: cell-based; conditions: Proteus vulgaris, nutrient agar, 37° C., 20 hours
[17] = tested on: E. coli No. 29; test: as above; format: cell-based; conditions: Escherichia coli, nutrient agar, 37° C., 20 hours
[18] = tested on: E. coli (M) Cast. & Chalm.NIHJ JC-2; test: as above; format: cell-based; conditions: Escherichia coli
[19] = tested on: Sal. typhimurium LT-2; test: as above; format: cell-based; conditions: Salmonella enterica
[20] = tested on: Serra. marcescens No. 1; test: as above; format: cell-based; conditions: Serratia marcescens, nutrient agar, 37° C., 20 hours
[21] = tested on: Sal. typhi 0-901-W; test: as above; format: cell-based; conditions: Salmonella enterica, 20 h
[22] = tested on: E. coli A-0003; test: as above; format: cell-based; conditions: Escherichia coli, A0003; nutrient agar, 37° C., 20 hours
[23] = tested on: B. anthracis No. 119; test: microbe, parasite or virus in culture; format: cell-based; conditions: Bacillus anthracis, NO.119, 20 h
[24] = tested on: Sta. aureus Rosenbach FDA 209-P JC-1; test: Antibacterial activity (MIC), serial dilution method; format: cell-based; conditions: Staphylococcus aureus, FDA209; nutrient agar, 37° C., 20 hours
[25] = tested on: Ps. aeruginosa E-2; test: as above; format: cell-based; conditions: Pseudomonas aeruginosa
[26] = tested on: Pro. mirabilis J-0010; test: as above; format: cell-based; conditions: Proteus mirabilis
[27] = tested on: E. coli W 677(A-20684); test: as above; format: cell-based; conditions: Escherichia coli; nutrient agar, 37° C., 20 hours
Method: (§2) Antimicrobial spectra of 1-N-(L-isoseryl)- and 1-N-(L-4-amino-2-hydroxybutyryl)-3',4'-dideoxy-3',4'-didehydrokanamycin B (1-AHP-eno-DKB and 1-AHB-eno-DKB) are shown in the following table together with that of 1-N-(L-4-amino-2-hydroxybutyryl)-3',4'-dideoxykanamycin B (1-AHB-DKB).
as §1

[28] = tested on: Sal. species D-0001; test: as above; format: cell-based; conditions: nutrient agar, 37° C., 20 hours
Method: as §2, §1

[29] = tested on: Sal. species D-0006; test: as above; format: cell-based; conditions: nutrient agar, 37° C., 20 hours
Method: as §2, §1

[30] = tested on: Ps. aeruginosa M-0002; test: as above; format: cell-based; conditions: Pseudomonas aeruginosa, M0002; nutrient agar, 37° C., 20 hours; read-out: MIC
[31] = tested on: Sta. epidermidis ATCC 14990; test: as above; format: cell-based; conditions: Staphylococcus epidermidis, ATCC14990; nutrient agar, 37° C., 20 hours
[32] = tested on: Sta. aureus ApO-1; test: as above; format: cell-based; conditions: Staphylococcus aureus, APO1; nutrient agar, 37° C., 20 hours
[33] = tested on: Pro. rettgelli J-0026; test: as above; format: cell-based
[34] = tested on: Ps. aeruginosa M-0032; test: as above; format: cell-based; conditions: Pseudomonas aeruginosa
[35] = tested on: E. coli A-0001; test: as above; format: cell-based; conditions: Escherichia coli, A0001; nutrient agar, 37° C., 20 hours
[36] = tested on: Str. faecalis ATCC 8043; test: as above; format: cell-based; conditions: Enterococcus faecalis, ATCC8043; nutrient agar, 37° C., 20 hours
[37] = tested on: Sta. aureus N-0089; test: as above; format: cell-based; conditions: Staphylococcus aureus, N0089; nutrient agar, 37° C., 20 hours
[38] = tested on: Sal. enteritidis No. 11(T-okai); test: as above; format: cell-based; conditions: Salmonella enterica
[39] = tested on: B. subtilis ATCC 6633; test: as above; format: cell-based; conditions: Bacillus subtilis, ATCC6633; nutrient agar, 37° C., 20 hours
[40] = tested on: E. coli JR 66/W 677(A-20683); test: as above; format: cell-based; conditions: Escherichia coli
[41] = tested on: drug-resistant microbial strains including Pseudomonas aeruginosa; conditions: cited from earlier work
[42] = tested on: Sal. species D-0029; test: Antibacterial activity (MIC), serial dilution method; format: cell-based; conditions: nutrient agar, 37° C., 20 hours
Method: as §2, §1

[43] = nutrient agar, 37° C., 20 hours, read-out: MIC

NCCC(O)C(=O)NC1CC(N)C(OC2OC(CN)C=CC2N)C(O)C1OC1OC(CO)C(O)C(N)C1O [1-AHB-eno-DKB, 1-N-(L-4-amino-2-hydroxybutyryl)-3',4'-dideoxy-3',4'-didehydrokanamycin B]
0.39 µg/mL: MIC [32]
3.13 µg/mL: MIC ([10]; M0148, nutrient agar, 37° C., 20 hours, read-out: MIC) | MIC [16] | MIC [17] | MIC ([18]; NIHJJC2, nutrient agar, 37° C., 20 hours, read-out: MIC) | MIC [22] | MIC ([25]; E2, nutrient agar, 37° C., 20 hours, read-out: MIC) | MIC [28] | MIC [30] | MIC [35] | MIC [40, 43]
0.78 µg/mL: MIC [11] | MIC [15] | MIC [21] | MIC [27]
0.1 µg/mL: MIC [23] | MIC [24] | MIC [31]
high antimicrobial activity: antimicrobial activity [4]
1.56 µg/mL: MIC ([1]; I0043, nutrient agar, 37° C., 20 hours, read-out: MIC) | MIC ([3]; IAM1007, nutrient agar, 37° C., 20 hours, read-out: MIC) | MIC [5] | MIC ([6]; J0001, nutrient agar, 37° C., 20 hours, read-out: MIC) | MIC [9] | MIC [12] | MIC [19, 43] | MIC ([26]; J0010, nutrient agar, 37° C., 20 hours, read-out: MIC) | MIC [29] | MIC [38, 43]
50 µg/mL: MIC [36]
12.5 µg/mL: MIC ([34]; M0032, nutrient agar, 37° C., 20 hours, read-out: MIC)
0.2 µg/mL: MIC [8] | MIC [14] | MIC [37] | MIC [39]
6.25 µg/mL: MIC ([2]; NC5, nutrient agar, 37° C., 20 hours, read-out: MIC) | MIC [7, 43] | MIC [13] | MIC [20] | MIC [33, 43]

NCC1CCC(N)C(OC2C(N)CC(NC(=O)C(O)CN)C(OC3OC(CO)C(O)C(N)C3O)C2O)O1 (stereo not shown) [1-N-isoseryl-3',4'-dideoxykanamycin B]
high activity: activity against a wide variety of drug-resistant microbial strains [41]

NCCC(O)C(=O)NC1CC(N)C(OC2OC(CN)CCC2N)C(O)C1OC1OC(CO)C(O)C(N)C1O [1-AHB-DKB, 1-N-(L-4-amino-2-hydroxybutyryl)-3',4'-dideoxykanamycin B]
high activity: activity against a wide variety of drug-resistant microbial strains [41]
6.25 µg/mL: MIC ([2]; NC5, 20 h) | MIC ([10]; M0148, 20 h) | MIC ([25]; E2, 20 h) | MIC ([33]; 20 h)
0.05 µg/mL: MIC [24]
0.78 µg/mL: MIC [9] | MIC [11] | MIC [12] | MIC [15]
0.1 µg/mL: MIC [23] | MIC [31] | MIC [39]
3.13 µg/mL: MIC [5] | MIC [13] | MIC [16] | MIC [17] | MIC [20] | MIC [22] | MIC [42] | MIC [30] | MIC [35]
50 µg/mL: MIC [36]
12.5 µg/mL: MIC ([7]; 20 h) | MIC ([34]; M0032, 20 h)
1.56 µg/mL: MIC ([1]; I0043, 20 h) | MIC ([3]; IAM1007, 20 h) | MIC ([6]; J0001, 20 h) | MIC ([18]; NIHJJC2, 20 h) | MIC ([19]; 20 h) | MIC ([26]; J0010, 20 h) | MIC [28] | MIC [29] | MIC ([38]; 20 h) | MIC ([40]; 20 h)
0.2 µg/mL: MIC [14] | MIC [27] | MIC [32]
0.39 µg/mL: MIC [8] | MIC [21] | MIC [37]
